The source of these data is US12480075B2, “Perfume delivery system” (FIRMENICH SA, priority 2019, dated 2025).

The assay can be described thus: Odor threshold concentration (Log T / Log ODT) by gas chromatograph sniff port with panelists. Set-up: species or system human. To be noted: common logarithm of odor threshold concentration of the ingredient. The protocol: “High impact perfume raw materials” should be understood as perfume raw materials having a Log T<−4. The odor threshold concentration of a chemical compound is determined in part by its shape, polarity, partial charges and molecular mass. For convenience, the threshold concentration is presented as the common logarithm of the threshold concentration, i.e., Log [Threshold] (“Log T”).
The odor threshold concentration of a perfuming compound is determined by using a gas chromatograph (“GC”). Specifically, the gas chromatograph is calibrated to determine the exact volume of the perfume oil ingredient injected by the syringe, the precise split ratio, and the hydrocarbon response using a hydrocarbon standard of known concentration and chain-length distribution. The air flow rate is accurately measured and, assuming the duration of a human inhalation to last 12 seconds, the sampled volume is calculated. […] To determine the threshold concentration, solutions are delivered to the sniff port at the back-calculated concentration. A panelist sniffs the GC effluent and identifies the retention time when odor is noticed. The average across all panelists determines the odor threshold concentration of the perfuming compound. The determination of odor threshold is described in more detail in C.
Regarding `C=CCCC(=O)C1=CCCC(C)(C)C1`, the “Log ODT” value is less than −4.
The figure for `CC12CCC(CC1)C(C)(C)O2` is more than −4; for `COc1nccnc1CCCC(C)C` it is less than −4.
Regarding `CC1(C)CC=C(CCC=O)CC1`, the “Log ODT” value is more than −4.
For `CC(=O)/C=C/C1=C(C)CCCC1(C)C` the value was less than −4; for “1-OXA-12-CYCLOHEXADECEN-2-ONE (A) + 1-OXA-13-CYCLOHEXADECEN-2-ONE (B)”, more than −4; for “2-METHYLBUTYL SALICYLATE (A) + PENTYL SALICYLATE (B)”, more than −4.
Regarding “3,5,6-TRIMETHYL-3-CYCLOHEXENE-1-CARBALDEHYDE (A) + 2,4,6-TRIMETHYL-3-CYCLOHEXENE-1 -CARBALDEHYDE (B)”, the “Log ODT” value is recorded as more than −4.
The figure for “3,7-DIMETHYL-2,6-NONADIENENITRILE (A) + 3,7-DIMETHYL-3,6-NONADIENENITRILE (B)” is more than −4; for “3-(4-ETHYLPHENYL)-2,2-DIMETHYLPROPANAL (A) + 3-(2-ETHYLPHENYL)-2,2-DIMETHYLPROPANAL (B)” it is more than −4.
The figure for “10-UNDECENAL (A) + (9E)-9-UNDECENAL (B) + (9Z)-9-UNDECENAL (C)” is less than −4; for `C/C=C/C(=O)[C@@H]1[C@@H](C)C=CCC1(C)C` (racemic) it is less than −4; for `CC(C)=CCCC(C)C=O` (racemic) it is more than −4.
The figure for `C=CC(C)CCCC(C)(C)O` (racemic) is more than −4; for `CC(C)CCCC(C)CCO` (racemic) it is more than −4; for `CC(C)=CCCC(C)CC=O` (racemic) it is more than −4.
Take `C=CC(C)(CCC=C(C)C)OC(C)=O` (racemic) [(+−)-1,5-DIMETHYL-1-VINYL-4-HEXENYL ACETATE]: the “Log ODT” value is reported as more than −4.
For `CC1=CCC(C(C)(C)S)CC1` (racemic) [(+−)-2-(4-METHYL-3-CYCLOHEXEN-1-YL)-2-PROPANETHIOL] the value was less than −4; for `CCCCCCCCCC(C)C=O` (racemic) [(+−)-2-METHYLUNDECANAL], less than -4; for `CC(C)c1cccc(C(C)CC=O)c1` (racemic) [(+−)-3-(3-ISOPROPYL-1-PHENYL)BUTANAL], less than −4.
The figure for `CCCCCCCC1CCC(=O)O1` (racemic) [(+−)-5-HEPTYLDIHYDRO-2(3H)-FURANONE] is less than −4.
The figure for `CC/C=C(\C)C(O)CCCCC` (racemic) [(+−)-(E)-4-METHYL-3-DECEN-5-OL] is more than −4; for `CCOC(=O)C(C)CC` (racemic) [(+−)-ETHYL 2-METHYLBUTANOATE] it is more than −4; for `CCCCC[C@H]1C(=O)CC[C@@H]1CC(=O)OC` (racemic) [METHYL 2-((1RS,2RS)-3-OXO-2-PENTYLCYCLOPENTYL)ACETATE] it is more than −4.
Turning to `CC1=CCC2C[C@@H]1C2(C)C` (single isomer, unassigned; (-)), the “Log ODT” value is recorded as more than −4.
The figure for `c1ccc(Oc2ccccc2)cc1` [1,1′-OXYDIBENZENE] is more than −4; for `COc1ccc(C)cc1` [1-METHOXY-4-METHYLBENZENE] it is more than −4; for `COc1ccc2ccccc2c1` [2-METHOXYNAPHTHALENE] it is less than −4.
For `CC(=O)OCCc1ccccc1` [2-PHENYLETHYL ACETATE], the “Log ODT” value is more than −4.
As for `CC(=O)OCCC(C)CCC=C(C)C` (stereo not drawn) [3,7-DIMETHYL-6-OCTENYL ACETATE], the “Log ODT” value was more than −4.
For `CC1=CC2CC(C=O)C1CC2C(C)C` (stereo not drawn) [8-ISOPROPYL-6-METHYL-BICYCLO[2.2.2]OCT-5-ENE-2-CARBALDEHYDE] the value was less than −4; for `CC(=O)O[C@@H]1CC2CC[C@]1(C)C2(C)C` [(1R,2R)-1,7,7-TRIMETHYL-BICYCLO[2.2.1]HEPT-2-YL ACETATE], more than −4; for `COCCc1ccccc1` [(2-METHOXYETHYL)BENZENE], more than −4.
With `CC/C=C\CCOC(C)=O` [(Z)-3-HEXENYL ACETATE], the “Log ODT” value is more than −4.
For `CC/C=C\CCOC(=O)C(C)C` [(Z)-3-HEXENYL ISOBUTYRATE] the value was more than −4; for `CC1(C)CCC[C@]2(C)[C@H]3CCO[C@]3(C)CC[C@@H]12` [(−)-(3AR,5AS,9AS,9BR)-3A,6,6,9A-TETRAMETHYLDODECAHYDRONAPHTHO[2,1-B]FURAN], less than −4; for `CCCCCCCCCC=O` [DECANAL], more than −4.
For `CCCCCCOC(=O)c1ccccc1O` [HEXYL 2-HYDROXYBENZOATE] the value was more than -4; for `CCCCCCOC(C)=O` [HEXYL ACETATE], more than −4; for `CCCCCCCCCC(C)=O` [Microcapsules 2-UNDECANONE, 2-UNDECANONE], more than −4.
In the case of `CCCCCCCC=O` [OCTANAL], the “Log ODT” value is more than −4.
For `O=C1CCCCCCCCCCCCCCO1` [OXACYCLOHEXADECAN-2-ONE] the value was more than −4.
The figure for “(1RS,2RS)-2,4-DIMETHYL-3-CYCLOHEXENE-1-CARBALDEHYDE (A) + (1RS,2SR)-2,4-DIMETHYL-3-CYCLOHEXENE-1-CARBALDEHYDE (B)” is more than −4; for “(2RS,4SR)-4-METHYL-2-(2-METHYL-1-PROPEN-1-YL)TETRAHYDRO-2H-PYRAN (A) + (2RS,4RS)-4-METHYL-2-(2-METHYL-1-PROPEN-1-YL)TETRAHYDRO-2H-PYRAN (B)” it is more than −4.
The figure for “(2Z)-1,1-DIETHOXY-3,7-DIMETHYL-2,6-OCTADIENE (A) + (2E)-1,1-DIETHOXY-3,7-DIMETHYL-2,6-OCTADIENE (B)” is more than −4; for “(2Z)-2-TRIDECENENITRILE (A) + (3Z)-3-TRIDECENENITRILE (B) + (3E)-3-TRIDECENENITRILE (C) + (2E)-2-TRIDECENENITRILE (D)” it is less than −4.
Take “(+)-(3S)-3-[(1R)-4-METHYL-3-CYCLOHEXEN-1-YL]BUTANAL (A) + (+)-(3R)-3-[(1R)-4-METHYL-3-CYCLOHEXEN-1-YL]BUTANAL”: the “Log ODT” value is more than −4.
As to “(+−)-4-METHYLENE-2-PHENYLTETRAHYDRO-2H-PYRAN (A) + (+−)-4-METHYL-6-PHENYL-3,6-DIHYDRO-2H-PYRAN (B) + (+−)-4-METHYL-2-PHENYL-3,6-DIHYDRO-2H-PYRAN (C)”, the “Log ODT” value is less than −4.
In the case of “(+−)-(3E)-3-METHYL-4-(2,6,6-TRIMETHYL-2-CYCLOHEXEN-1-YL)-3-BUTEN-2-ONE (A) + (+−)-(1E)-1-(2,6,6-TRIMETHYL-2-CYCLOHEXEN-1-YL)-1-PENTEN-3-ONE (B)”, the “Log ODT” value is listed as less than −4.
For “.ALPHA.-DIHYDROTERPINEOL (A) + .BETA.-DIHYDROTERPINEOL (B)” the value was more than −4.
The figure for “TRICYCLO[5.2.1.0~2,6~]DEC-3-EN-8-YL ACETATE (A) + TRICYCLO[5.2.1.0~2,6~]DEC-4-EN-8-YL ACETATE (B)” is more than −4.
